For 8 molecules, IC50, EC50 and AC50 results are on record in ChEMBL document CHEMBL1201862, “PubChem BioAssay data set” (2004).

Assay [1] has as its target T1, Probable nicotinate-nucleotide adenylyltransferase (Staphylococcus aureus (strain N315), UniProt P65502). Format: functional, Staphylococcus aureus subsp. aureus N315.
For assay [2], the target named is T1, Probable nicotinate-nucleotide adenylyltransferase. Format: functional, Staphylococcus aureus subsp. aureus N315. The note with it: read-out: IC50_Mean.
For the next assay, the target named is Protein Wnt-3a (Mus musculus, UniProt P27467). The assay can be described thus: antagonism of Wnt3a pathway luciferase reporter – Wnt-LIGHT cells, luminescence, selectivity assay for Gli-SUFU antagonist project, dose response (AID 651570).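 Also: Wnt-LIGHT reporter cells stimulated with conditioned medium from Wnt3a-producing cells.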 The assay is classed as functional. As to conditions: read-out: IC50_Mean. In general terms: In a reporter assay the amount or activity of a reporter protein is the signal.

A further assay deals with T2, Interleukin-8 (Homo sapiens, UniProt P10145).
T2 sequence (P10145 whole entry): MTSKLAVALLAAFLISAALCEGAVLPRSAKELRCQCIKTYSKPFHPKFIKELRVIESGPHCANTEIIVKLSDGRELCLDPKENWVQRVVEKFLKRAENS
The assay can be described thus: Dose Response confirmation of uHTS small molecule hits for cystic fibrosis induced NFkb Inhibitors in a PAF-induced IL8 counterscreen. The assay is classed as functional. The note with it: read-out: IC50_Mean.

In another assay the target is T3, Aminopeptidase N (Plasmodium falciparum FcB1/Columbia, UniProt O96935).
T3 sequence (O96935 whole entry): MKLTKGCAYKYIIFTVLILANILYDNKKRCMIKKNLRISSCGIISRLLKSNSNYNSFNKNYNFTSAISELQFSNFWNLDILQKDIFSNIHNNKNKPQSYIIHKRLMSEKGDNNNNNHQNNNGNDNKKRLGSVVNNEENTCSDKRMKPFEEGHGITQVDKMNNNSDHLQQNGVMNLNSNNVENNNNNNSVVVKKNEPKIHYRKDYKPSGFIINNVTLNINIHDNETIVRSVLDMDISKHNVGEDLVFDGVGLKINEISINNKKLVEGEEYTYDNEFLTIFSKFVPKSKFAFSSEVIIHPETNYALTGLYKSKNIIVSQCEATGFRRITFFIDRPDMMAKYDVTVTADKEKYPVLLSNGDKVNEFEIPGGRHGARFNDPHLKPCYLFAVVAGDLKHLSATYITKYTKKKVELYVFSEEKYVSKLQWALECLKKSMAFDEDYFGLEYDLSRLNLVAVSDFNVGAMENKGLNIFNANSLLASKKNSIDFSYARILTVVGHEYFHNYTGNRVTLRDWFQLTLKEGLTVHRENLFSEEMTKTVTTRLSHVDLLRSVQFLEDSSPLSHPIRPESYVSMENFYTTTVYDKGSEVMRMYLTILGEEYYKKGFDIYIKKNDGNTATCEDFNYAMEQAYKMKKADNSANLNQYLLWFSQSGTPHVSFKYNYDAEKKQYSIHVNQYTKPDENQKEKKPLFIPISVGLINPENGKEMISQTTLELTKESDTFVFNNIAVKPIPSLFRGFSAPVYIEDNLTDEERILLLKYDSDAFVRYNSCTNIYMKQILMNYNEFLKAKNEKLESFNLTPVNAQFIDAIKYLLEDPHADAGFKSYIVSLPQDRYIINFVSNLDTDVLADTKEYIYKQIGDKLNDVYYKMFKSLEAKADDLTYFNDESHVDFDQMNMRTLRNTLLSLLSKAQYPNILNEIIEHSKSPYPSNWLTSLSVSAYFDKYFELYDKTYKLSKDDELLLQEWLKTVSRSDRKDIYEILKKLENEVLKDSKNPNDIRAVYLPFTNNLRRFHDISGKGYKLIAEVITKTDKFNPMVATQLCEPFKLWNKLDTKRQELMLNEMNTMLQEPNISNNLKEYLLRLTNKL
Briefly: malaria alanyl aminopeptidase activity blockers – biochemical, fluorogenic H-Leu-NHMec substrate, 1536-well (AID 1445). Also noted: species or system Plasmodium falciparum 3D7, 3D7.

Assay [3] has as its target T4, Estrogen receptor beta (Homo sapiens, UniProt Q92731).
Assay [4] concerns the target T4, Estrogen receptor beta. Briefly: blockers of SRC-3 recruitment to ERβ – biochemical, ELISA, streptavidin-HRP readout, orthogonal assay, confirmation (AID 1060).
Assay [5] deals with Streptococcus sp. 'group A'. Briefly: Streptococcus pyogenes SK(-)GAS viability under kanamycin – luminescence, BacTiterGlo, confirmation, counter-screen for streptokinase expression inhibitor project, dose response (AID 1900). The assay is classed as functional, organism-based.
The target in assay [6] is Induced myeloid leukemia cell differentiation protein Mcl-1 (Homo sapiens, UniProt Q07820). Format: functional.
The test system of the next assay is Streptococcus. The assay can be described thus: GAS UMAA2166 growth inhibition – luminescence, BacTiterGlo, counter-screen for streptokinase expression inhibitor project, dose response (AID 1915).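 Also: potency for reduction of bacterial viability or growth.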 The assay is classed as functional, organism-based. (In general: The purpose of a counterscreen is to sort out artefacts and off-target activity.)
Assay [7] is described as follows: Luminescence Cell-Based Dose Retest to Confirm Inhibitors of Cancer Stem Cells. [Related pubchem assays (depositor defined):AID2717, AID2721]. The note with it: Homo sapiens. Format: functional.
The target of assay [8] is DNA (cytosine-5)-methyltransferase 1 (Homo sapiens, UniProt P26358). The assay can be described thus: inhibition of DNA methylation by DNMT1 – biochemical, fluorescent molecular beacon, confirmation (AID 602386). The assay is classed as functional.
In assay [9] the target is T5, Sentrin-specific protease 8 (Homo sapiens, UniProt Q96LD8).
T5 sequence (Q96LD8 whole entry): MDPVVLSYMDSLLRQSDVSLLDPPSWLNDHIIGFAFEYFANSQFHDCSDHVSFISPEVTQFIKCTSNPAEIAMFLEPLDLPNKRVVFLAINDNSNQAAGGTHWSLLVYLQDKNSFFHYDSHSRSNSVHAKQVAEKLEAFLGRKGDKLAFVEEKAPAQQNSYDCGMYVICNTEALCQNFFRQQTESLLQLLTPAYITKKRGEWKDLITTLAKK
The assay can be described thus: inhibition of human SENP8 cleavage activity – biochemical, luminescence, SAR follow-up (AID 504501). The assay is classed as functional.

Another assay addresses T6, Caspase-3 (Homo sapiens, UniProt P42574).
T6 sequence (P42574 whole entry): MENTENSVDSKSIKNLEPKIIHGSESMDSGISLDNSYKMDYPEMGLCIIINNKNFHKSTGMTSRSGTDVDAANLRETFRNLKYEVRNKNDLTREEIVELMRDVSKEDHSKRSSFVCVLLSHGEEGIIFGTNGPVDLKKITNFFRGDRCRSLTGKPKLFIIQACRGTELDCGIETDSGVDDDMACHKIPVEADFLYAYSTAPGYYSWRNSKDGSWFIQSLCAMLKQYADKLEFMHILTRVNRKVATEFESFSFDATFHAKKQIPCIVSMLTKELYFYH
Briefly: SAR Analysis of small molecule inhibitors of Sentrin-specific proteases (SENPs) using a Caspase-3 Selectivity assay. [Related pubchem assays (depositor defined):AID2540, AID2599, AID434973, AID489001]. The assay is classed as functional.

Assay [10] deals with T7, Sentrin-specific protease 6 (Homo sapiens, UniProt Q9GZR1).
T7 sequence (Q9GZR1 whole entry): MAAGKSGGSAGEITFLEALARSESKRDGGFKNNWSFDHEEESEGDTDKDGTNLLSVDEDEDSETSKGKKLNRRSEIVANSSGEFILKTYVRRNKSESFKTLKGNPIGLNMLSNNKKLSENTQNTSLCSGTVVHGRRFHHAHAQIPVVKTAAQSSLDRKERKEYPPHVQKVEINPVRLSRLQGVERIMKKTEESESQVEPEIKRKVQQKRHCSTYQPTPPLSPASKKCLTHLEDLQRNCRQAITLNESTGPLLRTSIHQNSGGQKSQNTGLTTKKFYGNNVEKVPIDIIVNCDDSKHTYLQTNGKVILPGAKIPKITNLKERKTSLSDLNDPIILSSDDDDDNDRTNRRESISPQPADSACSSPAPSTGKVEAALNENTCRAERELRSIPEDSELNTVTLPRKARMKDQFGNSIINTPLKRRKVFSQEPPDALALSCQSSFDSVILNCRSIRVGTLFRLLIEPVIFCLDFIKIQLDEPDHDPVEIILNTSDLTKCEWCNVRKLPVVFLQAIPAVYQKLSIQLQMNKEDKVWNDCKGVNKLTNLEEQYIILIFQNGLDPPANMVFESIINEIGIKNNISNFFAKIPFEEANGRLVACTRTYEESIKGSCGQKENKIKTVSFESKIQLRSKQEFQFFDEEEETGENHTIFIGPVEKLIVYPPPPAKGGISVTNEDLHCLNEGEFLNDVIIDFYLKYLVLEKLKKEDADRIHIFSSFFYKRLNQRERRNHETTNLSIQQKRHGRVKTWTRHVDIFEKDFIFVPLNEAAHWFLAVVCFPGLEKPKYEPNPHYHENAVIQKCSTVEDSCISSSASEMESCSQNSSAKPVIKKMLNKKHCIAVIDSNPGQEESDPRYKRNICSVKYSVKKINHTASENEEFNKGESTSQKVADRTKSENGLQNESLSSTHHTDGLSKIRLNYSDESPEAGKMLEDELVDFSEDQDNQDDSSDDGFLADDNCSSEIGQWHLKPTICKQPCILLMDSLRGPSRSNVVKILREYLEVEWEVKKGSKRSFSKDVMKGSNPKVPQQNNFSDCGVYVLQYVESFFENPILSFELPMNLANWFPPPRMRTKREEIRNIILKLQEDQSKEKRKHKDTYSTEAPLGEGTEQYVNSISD
Briefly: SAR Analysis of small molecule inhibitors of Sentrin-specific protease 6 (SENP6) using a Luminescent assay. [Related pubchem assays (depositor defined):AID2582, AID2599]. The assay is classed as functional.

The target in assay [11] is T8, Sentrin-specific protease 7 (Homo sapiens, UniProt Q9BQF6).
T8 sequence (Q9BQF6 whole entry): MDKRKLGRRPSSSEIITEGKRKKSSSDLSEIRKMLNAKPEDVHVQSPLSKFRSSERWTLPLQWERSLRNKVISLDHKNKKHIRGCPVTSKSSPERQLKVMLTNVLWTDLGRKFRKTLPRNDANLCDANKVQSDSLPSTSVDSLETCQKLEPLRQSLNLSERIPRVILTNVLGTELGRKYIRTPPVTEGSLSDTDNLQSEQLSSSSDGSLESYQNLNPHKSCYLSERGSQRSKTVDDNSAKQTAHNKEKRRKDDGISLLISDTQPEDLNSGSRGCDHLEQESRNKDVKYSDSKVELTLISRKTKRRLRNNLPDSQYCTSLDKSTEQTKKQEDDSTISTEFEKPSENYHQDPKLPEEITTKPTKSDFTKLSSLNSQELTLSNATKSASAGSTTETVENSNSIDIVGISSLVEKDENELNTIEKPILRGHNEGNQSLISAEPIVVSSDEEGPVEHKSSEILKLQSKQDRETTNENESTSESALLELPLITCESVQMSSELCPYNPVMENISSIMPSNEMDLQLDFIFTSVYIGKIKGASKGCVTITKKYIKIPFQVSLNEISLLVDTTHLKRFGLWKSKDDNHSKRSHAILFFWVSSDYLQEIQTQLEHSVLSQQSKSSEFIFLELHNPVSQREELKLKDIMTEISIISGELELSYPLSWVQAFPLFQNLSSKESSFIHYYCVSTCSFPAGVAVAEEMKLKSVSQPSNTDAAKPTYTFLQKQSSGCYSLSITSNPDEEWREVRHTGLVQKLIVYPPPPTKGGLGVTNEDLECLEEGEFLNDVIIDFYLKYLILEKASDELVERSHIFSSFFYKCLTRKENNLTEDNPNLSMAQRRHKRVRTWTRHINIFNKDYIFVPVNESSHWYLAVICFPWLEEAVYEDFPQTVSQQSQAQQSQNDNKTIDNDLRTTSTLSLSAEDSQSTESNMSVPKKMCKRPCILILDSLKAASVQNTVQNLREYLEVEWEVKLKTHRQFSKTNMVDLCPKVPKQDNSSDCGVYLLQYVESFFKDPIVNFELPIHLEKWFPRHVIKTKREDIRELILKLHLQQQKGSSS
The assay can be described thus: inhibition of human SENP7 cleavage activity – biochemical, luminescence, SAR follow-up (AID 504497). The assay is classed as functional.

Molecules are shown by their SMILES. Calls of active or inactive are those of the source. Where only a bound is given, the exact number is not on record here.
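For AC50 in this document: cells exposed to compound for roughly 70 hours or longer before luminescence read.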

T1 sequence (P65502 whole entry): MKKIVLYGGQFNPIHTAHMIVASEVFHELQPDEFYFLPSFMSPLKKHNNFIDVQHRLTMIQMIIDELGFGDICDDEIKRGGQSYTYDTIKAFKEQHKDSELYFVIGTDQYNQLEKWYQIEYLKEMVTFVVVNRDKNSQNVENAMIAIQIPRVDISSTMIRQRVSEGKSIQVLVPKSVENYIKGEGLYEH
T4 sequence (Q92731 whole entry): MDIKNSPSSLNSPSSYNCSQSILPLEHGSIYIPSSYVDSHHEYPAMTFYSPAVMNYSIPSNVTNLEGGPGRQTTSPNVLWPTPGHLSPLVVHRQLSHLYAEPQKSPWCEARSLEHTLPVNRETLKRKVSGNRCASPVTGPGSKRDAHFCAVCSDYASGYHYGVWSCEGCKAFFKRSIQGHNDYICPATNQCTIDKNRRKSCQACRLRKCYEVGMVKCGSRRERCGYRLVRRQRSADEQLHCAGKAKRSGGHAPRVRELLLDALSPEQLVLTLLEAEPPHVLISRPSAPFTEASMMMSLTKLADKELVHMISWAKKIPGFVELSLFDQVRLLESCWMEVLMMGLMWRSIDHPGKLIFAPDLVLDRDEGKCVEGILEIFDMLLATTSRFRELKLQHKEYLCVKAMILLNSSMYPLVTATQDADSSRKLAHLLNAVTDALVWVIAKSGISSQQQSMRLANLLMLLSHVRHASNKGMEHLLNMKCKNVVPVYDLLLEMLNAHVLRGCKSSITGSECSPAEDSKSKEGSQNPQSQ
Sequence of DNA (cytosine-5)-methyltransferase 1 (P26358 whole entry): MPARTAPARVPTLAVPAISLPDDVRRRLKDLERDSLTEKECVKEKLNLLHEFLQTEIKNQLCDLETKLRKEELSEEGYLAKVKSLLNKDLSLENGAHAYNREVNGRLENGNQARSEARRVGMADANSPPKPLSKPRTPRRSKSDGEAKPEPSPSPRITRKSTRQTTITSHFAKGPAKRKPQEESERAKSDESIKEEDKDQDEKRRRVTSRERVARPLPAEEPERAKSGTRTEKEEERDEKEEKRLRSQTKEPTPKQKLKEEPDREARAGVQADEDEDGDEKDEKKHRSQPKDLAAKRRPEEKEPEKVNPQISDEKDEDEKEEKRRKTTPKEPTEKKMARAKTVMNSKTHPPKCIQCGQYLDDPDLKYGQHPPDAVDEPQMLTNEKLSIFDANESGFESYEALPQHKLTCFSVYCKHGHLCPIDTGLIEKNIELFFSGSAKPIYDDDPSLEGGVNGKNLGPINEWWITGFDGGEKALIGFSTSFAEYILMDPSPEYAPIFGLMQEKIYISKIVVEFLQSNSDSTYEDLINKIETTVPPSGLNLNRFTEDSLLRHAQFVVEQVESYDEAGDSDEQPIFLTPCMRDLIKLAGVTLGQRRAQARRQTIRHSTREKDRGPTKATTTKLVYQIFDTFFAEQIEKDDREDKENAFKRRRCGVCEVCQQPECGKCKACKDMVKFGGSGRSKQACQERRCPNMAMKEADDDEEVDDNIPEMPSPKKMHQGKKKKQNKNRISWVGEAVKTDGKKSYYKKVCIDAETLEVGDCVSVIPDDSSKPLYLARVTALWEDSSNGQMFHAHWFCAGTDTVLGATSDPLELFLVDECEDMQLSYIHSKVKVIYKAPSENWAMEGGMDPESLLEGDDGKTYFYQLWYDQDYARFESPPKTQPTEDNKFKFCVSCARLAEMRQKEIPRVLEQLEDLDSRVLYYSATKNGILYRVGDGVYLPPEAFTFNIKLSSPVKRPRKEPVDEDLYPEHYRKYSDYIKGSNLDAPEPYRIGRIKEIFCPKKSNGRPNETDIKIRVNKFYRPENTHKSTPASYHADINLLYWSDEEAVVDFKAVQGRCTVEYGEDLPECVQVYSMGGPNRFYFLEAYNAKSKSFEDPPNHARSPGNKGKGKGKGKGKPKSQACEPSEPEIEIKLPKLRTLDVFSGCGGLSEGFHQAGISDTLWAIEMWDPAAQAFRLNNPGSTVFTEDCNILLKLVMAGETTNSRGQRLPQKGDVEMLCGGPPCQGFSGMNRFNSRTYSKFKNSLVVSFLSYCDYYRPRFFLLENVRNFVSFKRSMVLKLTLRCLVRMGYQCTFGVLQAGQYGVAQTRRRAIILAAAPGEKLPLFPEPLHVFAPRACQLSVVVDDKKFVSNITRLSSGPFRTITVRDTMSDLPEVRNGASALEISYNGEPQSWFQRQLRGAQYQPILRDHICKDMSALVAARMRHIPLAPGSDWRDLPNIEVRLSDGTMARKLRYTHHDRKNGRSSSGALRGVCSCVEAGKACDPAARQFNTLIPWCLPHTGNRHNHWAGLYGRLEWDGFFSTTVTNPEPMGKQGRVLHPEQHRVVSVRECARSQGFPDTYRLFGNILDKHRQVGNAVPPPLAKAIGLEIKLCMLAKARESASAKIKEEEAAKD
Sequence of Protein Wnt-3a (P27467 whole entry): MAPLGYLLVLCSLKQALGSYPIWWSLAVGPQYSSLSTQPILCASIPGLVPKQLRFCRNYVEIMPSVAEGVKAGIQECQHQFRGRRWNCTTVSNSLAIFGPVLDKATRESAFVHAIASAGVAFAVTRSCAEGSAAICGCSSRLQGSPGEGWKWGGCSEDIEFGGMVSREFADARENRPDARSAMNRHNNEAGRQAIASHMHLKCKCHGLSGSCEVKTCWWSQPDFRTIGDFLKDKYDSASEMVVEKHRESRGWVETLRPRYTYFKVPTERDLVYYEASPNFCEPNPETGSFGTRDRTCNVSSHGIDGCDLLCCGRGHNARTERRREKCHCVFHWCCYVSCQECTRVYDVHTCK
Sequence of Induced myeloid leukemia cell differentiation protein Mcl-1 (Q07820 whole entry): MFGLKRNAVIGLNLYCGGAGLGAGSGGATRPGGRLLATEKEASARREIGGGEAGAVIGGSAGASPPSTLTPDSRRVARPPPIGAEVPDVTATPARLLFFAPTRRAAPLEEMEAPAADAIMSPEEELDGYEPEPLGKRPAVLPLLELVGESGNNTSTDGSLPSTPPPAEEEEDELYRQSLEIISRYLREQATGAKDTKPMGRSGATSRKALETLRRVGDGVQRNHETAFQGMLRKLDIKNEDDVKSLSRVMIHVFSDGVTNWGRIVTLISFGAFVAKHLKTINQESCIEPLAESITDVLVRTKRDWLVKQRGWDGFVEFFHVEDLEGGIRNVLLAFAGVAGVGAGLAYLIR

With `Oc1ccc(Nc2nc(-c3cccs3)cs2)cc1`, the IC50 in assay [1] is 14.3 µM (active); in [2], 28.3 µM (active).

Turning to `O=C(Nc1ccccc1)C1=C[C@@H](C2CCCCC2)C[C@@H](OCCCCO)O1`, the IC50 on Protein Wnt-3a was 47.7 µM (inactive).

As to `CC1=C(C(=O)OCc2ccc3c(c2)OCO3)C(c2cccc([N+](=O)[O-])c2)NC(=O)N1` (stereo unspecified), the IC50 on Interleukin-8 is > 79 µM (inactive).

In the case of `Cc1oc2c(cc(NS(=O)(=O)c3ccc4c5c(cccc35)C(=O)N4)c3ccccc32)c1C(=O)OC(C)C`, the IC50 on Aminopeptidase N was 36.7 µM (active); at Estrogen receptor beta [3] it was 34.8 µM (not active); on Estrogen receptor beta [4], 706 nM (not active); in [1] it was 28.6 µM (active); in assay [2] it was 63.2 µM (active).

With `COc1ccc(/C=C2/C(=O)N(c3nc4ccccc4s3)N=C2CSc2ccc(Cl)cc2)cc1`, the EC50 (commonly the midpoint of the concentration-response curve) in [5] was 647 nM (active); in the assay with Streptococcus, 3.65 µM (active). In addition, the IC50 is 1.69 µM (active) in [6] and 2.86 µM (active) in assay [8]. In assay [7], the AC50 (in general, the concentration giving half of the maximal activity seen) is 3.01 µM (active).

On to `O=C(Nc1nc2ccc(NS(=O)(=O)c3ccc(Cl)s3)cc2s1)c1ccccc1`, for which the IC50 in [9] is 3.34 µM (active); at Caspase-3 it was 12 µM (active); in assay [10], 2.95 µM (active); in assay [11], 2.65 µM (active).

For `CCOc1ccc2nc(NC(=O)c3ccc(NS(=O)(=O)c4cccs4)cc3)sc2c1`, the IC50 is > 99 µM (inactive) in [9], > 99 µM (inactive) on Caspase-3, > 99 µM (inactive) in [10] and 46.5 µM (active) in [11].

With `CCCCOCCCNC(=O)CNC(=O)c1sc2ccccc2c1Cl`, the IC50 (in assay [9]; at Caspase-3; in assay [10]; in assay [11]) was > 99 µM (inactive) in each case.
